Measurements as given in patent publication US8389481B2, “Glutamate-enhanced cell-penetrating peptides and methods of using same” (University of Medicine and Dentistry of New Jersey, priority 2008, dated 2013).
Where “and” joins values, the source holds several entries; their conditions need not be identical. Identical values can stand only once. Primed or numbered codes have the meaning given here. Ends that are not written are not given here. Peptide text beside a SMILES is read from it. * marks the point of attachment. {P353} = cell-penetrating peptide 353 (Glu-Oct6) attached at PNA N-terminus; {Lys-FITC} = C-terminal lysine carrying fluorescein (FITC); 5FAM = O=C1OC2(c3ccc(O)cc3Oc3cc(O)ccc32)c2ccc(C(=O)*)cc21; FITC′ = not defined here

Assays:
Type in all cases: cell-based
[1] = test system: DU-145 cells; assay: Peptide uptake by live cells, flow cytometry (geometric MFI); conditions: for average geometric MFI: 300 nM peptides, 4° C., 4 hours (FIG. 2); for geometric MFI compared among the peptides (FIG. 1A): 500 nM peptides, 4 hrs incubation; for effect of NaN3 on uptake: 0.1 or 1% NaN3, 300 nM peptide; for uptake of carboxydansyl peptide on coincubation with peptide 353: 300 nM each, 1 hr (FIG. 1D)
Description: (§1) Uptake of peptides by live cells was compared by flow cytometry, using the exclusion dye 7-amino actinomycin D (7-AAD) to exclude dead cells from analyses.
(§2) Cells: DU-145 and LNCaP cells were the gift of Dr. James Turkson (University of South Florida, Tampa, Fla.). DU-145 cells were grown in DMEM/Ham's F12 (Invitrogen, Carlsbad, Calif.) plus 10% newborn bovine serum (Hyclone, Logan, Utah). LNCaP cells were maintained in RPMI-1640 (Invitrogen) plus fetal bovine serum (Hyclone). Cell viabilities were determined using fluorescein diacetate (Sigma Chemical Co., St. Louis, Mo.) and a Universal RIII fluorescence microscope (Zeiss, Jena, Germany).
(§3) Uptake and Fluorescence Quantification Studies: Peptides were added to subconfluent cultures of cells at times, temperatures, and concentrations indicated in experiments. Concentrations ranging from 0 to 3000 nM were assayed. Cells were analyzed in the presence of […] 7-AAD (eBioscience, San Digeo Calif.) to gate on live events. Fluorescence was quantified, after cells were harvested, using a FACScan flow cytometer. At least 10,000 events were acquired using CellQuest Pro software and an Apple Macintosh G4 dual coprocessor computer running OS X 10.3.9. Fluorescence detectors on the instrument were standardized prior to each acquisition run, so that fluorescence intensities from different days could be compared. Because the FACScan employs logarithmic amplifiers on the fluorescence detectors, the more accurate parameter with which to compare fluorescence intensities for different samples is the geometric mean fluorescence intensity (geometric MFI). In some studies, fixed cells (4% paraformaldehyde/DPBS) were analyzed on an Amnis ImageStream 200 imaging cytometer using IDEAS 3.0 software.

[2] = test system: LNCaP cells; assay: Imaging flow cytometry, intracellular distribution of FITC-labeled peptides; conditions: 250 nM, 4 hours
Description: (§4) FIG. 3A: DU-145 and LN-CaP cells were incubated with 250 nM peptides 351 or 353 for 4 hours, counterstained with 5 μM DRAQ 5, then fixed in paraformaldehyde and analyzed by imaging flow cytometry on an Amnis Imaging Cytometer. IDEAS software (Amnis) was used to generate and colorize the images. […] FIG. 3B: Live cell imaging of peptide 353 by DU-145 cells. 500 nM peptide 353 was incubated with DU-145 cells overnight (necessary for imaging purposes). Cells were washed with phenol red-free buffer, counter-stained with DRAQ5 at 10 μM, then examined under a Zeiss Axiovert 200 inverted phase contrast microscope with epifluorescence. The merged image confirms the presence of peptide 353 in nuclei. FIGS. 3C and D: DU-145 cells incubated with peptides 350 and 356, as described for FIG. 3B. Note the absence of FITC fluorescence in nuclei.
(§5) Since flow cytometry only gives data regarding total shifts in fluorescence of a population, imaging flow cytometry and live imaging microscopy studies were performed to determine if the NLS augmented nuclear accumulation of the peptides. Imaging flow cytometry was chosen to provide data on intracellular distribution of FITC-labeled peptides. Inverted epifluorescence microscopy was chosen to eliminate inadvertant artifacts that may arise from fixation, such as nuclear translocation. For these studies, the cell-permeable fluorochrome DRAQ5 was used because it readily enters and stains nuclei of viable cells. […] It was not retained in the plasma membrane (FIG. 3A). […] The translocation of peptides to nuclei was complete in the sense that FITC and DRAQ5 fluorescence colocalized in all viable cells, although cytoplasmic fluorescence was visible as well. The FITC distribution was somewhat punctuate in the cytoplasmic portion of cells, leading us to conclude that the peptide may be accumulating within endosomes. […]
as §3, with “Concentrations ranging from 0 to 3000 nM were assayed.” left out, “At least 10,000 events were acquired using CellQuest Pro software and an Apple Macintosh G4 dual coprocessor computer running OS X 10.3.9.” left out

[3] = test system: DU-145 cells; assay: as above; conditions: 250 nM, 4 hours
Description: as §4, §5
as §3, with “Concentrations ranging from 0 to 3000 nM were assayed.” left out, “At least 10,000 events were acquired using CellQuest Pro software and an Apple Macintosh G4 dual coprocessor computer running OS X 10.3.9.” left out

[4] = Cell death determined by staining with 7-AAD; conditions: human, DU-145 cells; 3000 nM, 1 hr (FIG. 1C)
Description: (§6) In order to determine if uptake of peptide 353 was receptor-mediated or receptor-specific in any way, Glu residues were substituted by Phe residues (peptide 361) or Asn residues (peptide 362). The resulting peptides were incubated at 0 to 3000 nM with DU-145 cells for 1 hr. Cells were then harvested and processed for analysis by flow cytometry. […] At 3000 nM, peptides 361 and 362 induced cell death in more than 70% of the cells (determined by staining with 7-AAD); in the case of peptide 361, over 95% of DU-145 cells were positive for 7-AAD; therefore only geometric MFI for concentrations up to 1000 nM are shown in the figure. […] The higher MFI observed for peptide 365 is likely due to the hydrophobicity of both the Phe residues and the dansyl fluorochrome. It was concluded from these experiments that peptide 353 bound to a cell-surface receptor through the glutamate residues.
as §3

[5] = test system: DU-145 cells; assay: Cell death determined by staining with 7-AAD; conditions: concentrations higher than 300 nM
Description: as §6, §3

[6] = test system: LNCaP cells; assay: Peptide uptake by live cells, flow cytometry (geometric MFI); conditions: 3 μM peptide, 1 hr (FIG. 1B)
Description: as §1, §2, §3

[7] = test system: LNCaP cells; assay: Live cell imaging of nuclear localization (epifluorescence microscopy); conditions: 500 nM, 24 hrs incubation
Description: as §5
(§7) Live Cell Imaging Studies: A Zeiss Axiovert 200 inverted phase-contrast microscope outfitted with epifluorescence was used for live imaging studies. […] Images were acquired and analyzed using Zeiss Axiovision software.

[8] = test system: DU-145 cells; assay: as above; conditions: 500 nM, 24 hrs incubation
Description: as §5, §7

[9] = 300 nM peptide, 4 hr, 37° C., NaN3 0%
[10] = 300 nM peptide, 4 hr, 37° C., NaN3 0.1%
[11] = 300 nM peptide, 4 hr, 37° C., NaN3 1.0%
[12] = 300 nM peptide, 4 hr, NaN3 0.1%
[13] = 300 nM peptide, 4 hr, NaN3 1.0%
[14] = up to 300 nM, 1 hr, 37 ° C. (FIG. 1C), from approximately 40 without peptide

Compound	Geometric MFI [1, 9]	Geometric MFI [1, 10]	Geometric MFI [1, 11]	% Inhibition ([1]; 300 nM peptide, 4 hr, NaN3 0%)	% Inhibition [1, 12]	average geometric MFI [1]	geometric MFI compared among the peptides (FIG. 1A) [1]	% Inhibition [1, 13]	effect of NaN3 on uptake ([1]; 4 hr, 37° C.)	cell death [5]	other results
EEEAAGRKRKKRT-TATGATCTCCTCCGT-K-FITC (all peptide nucleic acid (PNA), 5' {P353}, 3' {Lys-FITC}) [Peptide 353-PNA]	–	–	–	–	–	–	–	–	–	–	MFI of the cells with increasing concentration ([1]; 0, 300, and 1000 nM, 18 hr (FIG. 4)): increased the MFI; MFI of small but highly fluorescent population of cells ([1]; 300 nM, 18 hr (FIG. 4)): greater than 10^3
GRKRKKRT-FITC (GRKRKKRT-{FITC′}) [Peptide 356]	417.6	293	181	0%	29.8%	325	not nearly as great as that of peptide 353	–	–	–	–
EEEAAKKK-FITC (EEEAAKKK-{FITC′}) [Peptide 352]	58.6	61.8	47.4	0%	0%	186	significantly increased	19.1%	no effect	–	–
EEE-FITC [Peptide 350]	25.6	26.4	29.7	0%	0%	–	lowest values	0%	no effect	–	–
EEEAA-FITC (not fully specified; carboxyfluorescein label; Synthetically produced Glu peptide (Peptide 351))	43.8	56.9	48.4	0%	0%	–	lowest values	0%	no effect	–	accumulation in the cells when the plasma membrane was excluded [2]: much less accumulation; nuclei positive for DRAQ5 and FITC colocalization [2]: ~10%; accumulation in the cells when the plasma membrane was excluded [3]: much less accumulation; nuclei positive for DRAQ5 and FITC colocalization [3]: ~10%
C[C@H](NC(=O)[C@H](C)NC(=O)[C@H](CC(N)=O)NC(=O)[C@H](CC(N)=O)NC(=O)[C@@H](N)CC(N)=O)C(=O)NCC(=O)N[C@@H](CCCNC(=N)N)C(=O)N[C@@H](CCCCN)C(=O)N[C@@H](CCCNC(=N)N)C(=O)N[C@@H](CCCCN)C(=O)N[C@@H](CCCCN)C(=O)N[C@@H](CCCNC(=N)N)C(=O)N[C@H](C(=O)N[C@@H](CCCCNC(=O)c1ccc2c(c1)C(=O)OC21c2ccc(O)cc2Oc2cc(O)ccc21)C(=O)O)[C@@H](C)O [Peptide 362, NNNAAGRKRKKRT-FITC] (H-NNNAAGRKRKKRTK(5FAM)-OH)	–	–	–	–	–	–	–	–	–	not seen	Geometric MFI [1, 14]: ~100; viability at 1 h, 3 µM [4]: < 50%
C[C@H](NC(=O)[C@H](C)NC(=O)[C@H](Cc1ccccc1)NC(=O)[C@H](Cc1ccccc1)NC(=O)[C@@H](N)Cc1ccccc1)C(=O)NCC(=O)N[C@@H](CCCNC(=N)N)C(=O)N[C@@H](CCCCN)C(=O)N[C@@H](CCCNC(=N)N)C(=O)N[C@@H](CCCCN)C(=O)N[C@@H](CCCCN)C(=O)N[C@@H](CCCNC(=N)N)C(=O)N[C@H](C(=O)N[C@@H](CCCCNC(=O)c1ccc2c(c1)C(=O)OC21c2ccc(O)cc2Oc2cc(O)ccc21)C(=O)O)[C@@H](C)O [Peptide 361, FFFAAGRKRKKRT-FITC] (H-FFFAAGRKRKKRTK(5FAM)-OH)	–	–	–	–	–	–	–	–	–	significant cell death	Geometric MFI [1, 14]: ~100; viability at 1 h, 3 µM [4]: < 50%
EEEAAGRKRKKRT-FITC (EEEAAGRKRKKRT-{FITC′}) [Peptide 353, glutamate peptide linked by alanine linker to Oct6 NLS]	151 and 151.4	155.7	114 and 114.4	0%	0%	486	significantly increased	–	–	not seen	Geometric MFI [6]: 1500-2000; uptake of carboxyfluorescein peptide 353 on coincubation ([1]; 300 nM 353 with 300 nM carboxydansyl peptide 365 or 366, 1 hr (FIG. 1D)): nearly unaltered uptake; Geometric MFI ([1]; 3 μM peptide, 1 hr (FIG. 1B)): 1500-2000; accumulation in the nuclei [7]: accumulated in the nuclei; accumulation in the nuclei [8]: accumulated in the nuclei
FFFAAGRKRKKRT-K-dansyl (FFFAAGRKRKKRTK-dansyl) [Peptide 365]	–	–	–	–	–	–	–	–	–	–	uptake of carboxydansyl peptide on coincubation with peptide 353 [1]: without concomitant uptake
NNNAAGRKRKKRT-K-dansyl (NNNAAGRKRKKRTK-dansyl) [Peptide 366]	–	–	–	–	–	–	–	–	–	–	uptake of carboxydansyl peptide on coincubation with peptide 353 [1]: without concomitant uptake
